Experimental data: paper PMC8162404, “Proteomimetic surface fragments distinguish targets by function” (Chemical Science, 2020)

Tests used:
CaM [1] = target: T1, CaM (Bos taurus, UniProt P62157); assay: Pull-down assay with immobilized protein and LSM libraries; format: binding, bovine; details: H14 library; 1:2 stoichiometry assumed; read-out: Surface mapping KD (apparent)
T1 construct: made in house; host or cells: E. coli BL21 (DE3)
How it was run: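 His-tagged protein immobilized on Co-NTA resin, equilibrated 30 min at room temperature with LSM sublibraries (64 members, […]), equimolar protein to total probe. CaM buffer: 20 mM HEPES pH 7.4, 150 mM NaCl, 5 mM CaCl2. Bound fractions from HPLC-MS loss of unbound probe versus protein-free resin control; Kd derived.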

Gal-1 [2] = target: T2, Gal-1 (Homo sapiens, UniProt P09382); assay: as above; format: binding; details: H14 library; 1:1 binding assumed; read-out: Surface mapping KD (apparent)
T2 construct: made in house; host or cells: E. coli BL21(DE3)
How it was run: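 His-tagged protein immobilized on Co-NTA resin (64 µM) in 20 mM HEPES pH 7.4, 150 mM NaCl, equilibrated 30 min at room temperature with foldamer LSM sublibraries at equimolar total concentration. Unbound fractions quantified by HPLC-MS versus protein-free resin control; apparent KD assumes 1:1 binding.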

S100A4 = target: T3, S100A4 (Homo sapiens, UniProt P26447); assay: as above; format: binding; details: for Kd: H14 library, 1:1 binding assumed, read-out: Surface mapping KD (apparent); for Affinity class of probe (high, medium, low) in pull-down: H14 probes selected for validation
T3 construct: made in house; host or cells: Escherichia coli BL21(DE3)
How it was run: (§1)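 Buffers were HEPES pH 7.4 with 150 mM NaCl, plus 1 mM TCEP and 1 mM CaCl2 (50 mM HEPES) for S100A4 and S100B, 1 mM TCEP for Gal-1, and no additive for RecQ-WH. Immobilized protein at 64 µM was equilibrated 30 min with the LSM sublibrary, and unbound probes were measured by LC-MS.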

S100B [3] = target: T4, S100B (Homo sapiens, UniProt P04271); assay: as above; format: binding; details: for Kd: H14 library, 1:1 binding assumed, read-out: Surface mapping KD (apparent); for Affinity class of probe (high, medium, low) in pull-down: H14 probes selected for validation
T4 construct: made in house; host or cells: Escherichia coli BL21(DE3)
T4 sequence (P04271 1-92): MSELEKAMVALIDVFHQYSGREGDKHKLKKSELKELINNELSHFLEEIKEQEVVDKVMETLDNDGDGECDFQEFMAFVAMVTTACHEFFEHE
How it was run: as §1

RecQ-WH = target: T5, RecQ-WH (Escherichia coli, UniProt P15043); assay: as above; set-up: species or system E. coli; details: H14 library; 1:1 binding assumed; read-out: Surface mapping KD (apparent)
T5 construct: coding for residues 408– 523 of E. coli RecQ; made in house; host or cells: E. coli BL21(DE3)
Description: Pull-down assays with immobilized test proteins and foldameric LSM libraries were carried out. Proteins were equilibrated with LSM probes, and equilibrium bound fractions (FB) were determined from the unbound fractions measured by HPLC-MS methods. Hits were corrected with background binding of the resin. The protocol allowed all binding events to equilibrate irrespective of affinity, specificity, and binding kinetics. This was essential to judge overall druggability and promiscuity. Importantly, the concentration of protein and the total concentration of foldameric LSMs were equimolar, which minimized competition between the probes. This experimental setup approximated independent binding of individual library members. Results were visualized as heat maps of dissociation constants (Fig. 3).
Pull-down assay and data analysis
Pull-down assay. LSM sublibraries were screened separately as previously described.(2) Experiments were performed in the following buffers: (i) 20 mM pH 7.4 HEPES, 150 mM NaCl, 5 mM CaCl2 for CaM; (ii) 50 mM pH 7.4 HEPES, 150 mM NaCl, 1 mM TCEP, 1 mM CaCl2 for S100 proteins; (iii) 20 mM pH 7.4 HEPES, 150 mM NaCl, 1 mM TCEP for Gal-1 and (iv) 20 mM pH 7.4 HEPES, 150 mM NaCl for RecQ-WH. Assays were performed in paper filter spin cups (Thermo Scientific) with sample volumes of 100 µl. Hexahistidine-tagged proteins were immobilized on previously washed Co-NTA resin (TALON, Takara Bio USA, Inc., Mountain View, CA) in 64 µM final concentration. LSM sublibrary was added, in which each of the 64 library members were used at a concentration of 1 µM. Samples were incubated at room temperature for 30 min with shaking at 100 rpm. Then, samples were centrifuged at 1000 rpm for 2 min and washed with 100 µl pull-down buffer to remove unbound compounds.
The control experiments were performed using the same compounds and the resin but without the immobilized protein. In case of competitive assays, competitor peptides were added to LSM sublibrary samples in 200 µM final concentration. In the case of Gal-1, lactose (competitor) was used in a concentration of 10 mM. Experiments were performed at least twice. Mean […]
LC-MS methods and parameters. HPLC/ESI-MS analysis was used to characterize the samples from the pull-down assay. LC-MS analysis was performed with a Thermo Scientific Dionex UltiMate 3000 HPLC system interfaced to an LTQ ion trap mass spectrometer (Thermo Electron Corp., San Jose, CA, USA). Samples were injected onto an Aeris Widepore XB-C18 (250 x 4.6 mm) analytical HPLC column using gradient elution 5-80 % solution B during 25 minutes. For pull-down samples, eluent composition was 0.1% acetic acid in distilled water (Solution A) and 0.1% acetic acid in acetonitrile (solution B). Mass spectra were acquired in full scan mode from 200 to 2000 m/z range. For overlapping peaks, selective reaction monitoring (SRM) was […]
MS data analysis. Thermo Xcalibur 2.2 software was used for peak identification and integration. The majority of the foldameric fragments could be resolved independently via HPLC-MS/MS measurements based on molecular weight, MS fragmentation pattern and retention time. Peaks of some foldamers with β3-hIle or β3-hLeu in position R2 could not be resolved, these were integrated and averaged. In the processing method, each sample component was associated to a chromatographic peak based on previously identified mass (m/z) and retention time (ref (2) and Table S7-10). Using ICIS peak detection algorithm, the general detection and integration criteria were: smoothing points: 5, baseline window: 80, area noise factor: 5, peak noise factor: 10. Using these processing setups, all raw data files were reprocessed together and analyzed. Errors in peak identification during the automatic processing were corrected manually.
Calculation of the discussed parameters
1. Bound fractions (FB.) were calculated from the HPLC-MS intensity loss of the LSM probes compared to the control where no protein was immobilized to the resin: […]

S100B [4] = target: T4, S100B; assay: Competition pull-down with native ligand RSK1 (689–735); format: binding; details: H14 library; competitor peptide 200 µM; read-out: Surface mapping KD (apparent), competition
Gal-1 [5] = target: T2, Gal-1; assay: Competition pull-down with lactose; format: binding; details: H14 library; lactose 10 mM; read-out: Surface mapping KD (apparent), competition
How it was run: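 His6-tagged proteins immobilized on Co-NTA resin at 64 µM final with 64-member LSM foldamer sublibraries (1 M each, as printed) in pH 7.4 HEPES/NaCl buffers (Ca2+/TCEP per target), 30 min RT; competitor peptides 200 µM final, lactose 10 mM for Gal-1. Bound fractions from LC-MS loss vs protein-free resin; KD assuming 1:1 binding.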

CaM [6] = target: T1, CaM; assay: Competition pull-down with native ligand TRPV1-Ct15; format: binding, bovine; details: H14 library; competitor peptide 200 µM; read-out: Surface mapping KD (apparent), competition

T5 sequence (P15043 408-523): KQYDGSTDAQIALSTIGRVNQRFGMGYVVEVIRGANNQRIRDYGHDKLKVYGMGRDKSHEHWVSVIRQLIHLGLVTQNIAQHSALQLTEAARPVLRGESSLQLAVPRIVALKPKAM
T2 sequence (P09382 whole entry): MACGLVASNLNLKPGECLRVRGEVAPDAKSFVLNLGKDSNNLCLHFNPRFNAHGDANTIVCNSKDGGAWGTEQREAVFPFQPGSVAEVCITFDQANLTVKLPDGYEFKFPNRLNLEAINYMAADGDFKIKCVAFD
T3 sequence (P26447 whole entry): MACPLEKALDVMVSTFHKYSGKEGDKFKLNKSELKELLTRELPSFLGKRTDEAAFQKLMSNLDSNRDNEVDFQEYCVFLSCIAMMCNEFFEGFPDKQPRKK

SMILES | Kd (CaM [1]) [µM] | Kd (Gal-1 [2]) [µM] | Kd (S100A4) [µM] | Kd (S100B [3]) [µM] | Kd (RecQ-WH) [µM] | Kd (S100B [4]) [µM] | Kd (Gal-1 [5]) [µM] | Kd (CaM [6]) [µM] | Affinity class of probe (high, medium, low) in pull-down (S100A4) | Affinity class of probe (high, medium, low) in pull-down (S100B [3]) | Binding (S100A4; H14 probes) | Binding (S100B [3]; H14 probes)
CC(C)C[C@@H](CC(=O)N[C@H]1CCCC[C@@H]1C(N)=O)NC(=O)[C@H]1CCCC[C@@H]1NC(=O)[C@H]1CCCC[C@@H]1NC(=O)C[C@H](C)NC(=O)[C@H]1CCCC[C@@H]1N [H14 AL] | 13 | 127 | 7 | 108 | 401 | 313 | 272 | – | – | – | – | –
NC(=O)[C@H]1CCCC[C@@H]1NC(=O)C[C@H](Cc1ccccc1)NC(=O)[C@H]1CCCC[C@@H]1NC(=O)[C@H]1CCCC[C@@H]1NC(=O)C[C@H](CCC(=O)O)NC(=O)[C@H]1CCCC[C@@H]1N [H14 EF] | – | – | – | 476 | 241 | 126 | 430 | – | – | – | – | –
NCCCC[C@@H](CC(=O)N[C@H]1CCCC[C@@H]1C(N)=O)NC(=O)[C@H]1CCCC[C@@H]1NC(=O)[C@H]1CCCC[C@@H]1NC(=O)C[C@H](Cc1ccccc1)NC(=O)[C@H]1CCCC[C@@H]1N [H14 FK] | 4 | 154 | 141 | 63 | 424 | 391 | 153 | – | – | – | – | –
NC(=O)[C@H]1CCCC[C@@H]1NC(=O)C[C@H](CO)NC(=O)[C@H]1CCCC[C@@H]1NC(=O)[C@H]1CCCC[C@@H]1NC(=O)C[C@H](Cc1ccccc1)NC(=O)[C@H]1CCCC[C@@H]1N [H14 FS] | 15 | – | 111 | 364 | 303 | 429 | – | – | – | – | – | –
C[C@@H](O)[C@@H](CC(=O)N[C@H]1CCCC[C@@H]1C(N)=O)NC(=O)[C@H]1CCCC[C@@H]1NC(=O)[C@H]1CCCC[C@@H]1NC(=O)C[C@H](Cc1ccccc1)NC(=O)[C@H]1CCCC[C@@H]1N [H14 FT] | 11 | 348 | 135 | 274 | 218 | 333 | – | – | – | – | – | –
CC[C@H](C)[C@@H](CC(=O)N[C@H]1CCCC[C@@H]1C(=O)N[C@H]1CCCC[C@@H]1C(=O)N[C@H](CC(=O)N[C@H]1CCCC[C@@H]1C(N)=O)Cc1ccc(O)cc1)NC(=O)[C@H]1CCCC[C@@H]1N [H14 IY] | 15 | 258 | 20 | 74 | 300 | 156 | – | – | – | – | – | –
N=C(N)NCCC[C@@H](CC(=O)N[C@H]1CCCC[C@@H]1C(N)=O)NC(=O)[C@H]1CCCC[C@@H]1NC(=O)[C@H]1CCCC[C@@H]1NC(=O)C[C@H](CCCCN)NC(=O)[C@H]1CCCC[C@@H]1N [H14 KR] | 22 | – | – | 22 | 486 | – | 323 | 249 | – | – | – | –
CC(C)[C@@H](CC(=O)N[C@H]1CCCC[C@@H]1C(N)=O)NC(=O)[C@H]1CCCC[C@@H]1NC(=O)[C@H]1CCCC[C@@H]1NC(=O)C[C@H](CCCCN)NC(=O)[C@H]1CCCC[C@@H]1N [H14 KV] | 50 | – | 71 | 102 | 442 | – | – | 376 | – | – | – | –
CSCC[C@@H](CC(=O)N[C@H]1CCCC[C@@H]1C(=O)N[C@H]1CCCC[C@@H]1C(=O)N[C@H](CC(=O)N[C@H]1CCCC[C@@H]1C(N)=O)C(C)C)NC(=O)[C@H]1CCCC[C@@H]1N [H14 MV] | 3 | 178 | 21 | 118 | 294 | 360 | 218 | – | – | – | – | –
N=C(N)NCCC[C@@H](CC(=O)N[C@H]1CCCC[C@@H]1C(=O)N[C@H]1CCCC[C@@H]1C(=O)N[C@H](CC(=O)N[C@H]1CCCC[C@@H]1C(N)=O)Cc1ccccc1)NC(=O)[C@H]1CCCC[C@@H]1N [H14 RF] | 4 | – | 65 | 16 | 231 | – | – | 350 | medium | high | – | –
N=C(N)NCCC[C@@H](CC(=O)N[C@H]1CCCC[C@@H]1C(=O)N[C@H]1CCCC[C@@H]1C(=O)N[C@@H](CCCCN)CC(=O)N[C@H]1CCCC[C@@H]1C(N)=O)NC(=O)[C@H]1CCCC[C@@H]1N [H14 RK] | 22 | – | – | 22 | 486 | – | 323 | 249 | – | – | – | –
N=C(N)NCCC[C@@H](CC(=O)N[C@H]1CCCC[C@@H]1C(N)=O)NC(=O)[C@H]1CCCC[C@@H]1NC(=O)[C@H]1CCCC[C@@H]1NC(=O)C[C@H](CCCNC(=N)N)NC(=O)[C@H]1CCCC[C@@H]1N [H14 RR] | 10 | – | – | 18 | 355 | – | – | 103 | low | high | does not | binds
CC(C)[C@@H](CC(=O)N[C@H]1CCCC[C@@H]1C(=O)N[C@H]1CCCC[C@@H]1C(=O)N[C@H](CC(=O)N[C@H]1CCCC[C@@H]1C(N)=O)Cc1ccc(O)cc1)NC(=O)[C@H]1CCCC[C@@H]1N [H14 VY] | 30 | 318 | 50 | 110 | 115 | 167 | – | – | – | – | – | –
NC(=O)CC[C@@H](CC(=O)N[C@H]1CCCC[C@@H]1C(N)=O)NC(=O)[C@H]1CCCC[C@@H]1NC(=O)[C@H]1CCCC[C@@H]1NC(=O)C[C@H](Cc1c[nH]c2ccccc12)NC(=O)[C@H]1CCCC[C@@H]1N [H14 WQ] | 16 | – | 191 | 161 | 473 | – | – | 495 | – | – | – | –
N=C(N)NCCC[C@@H](CC(=O)N[C@H]1CCCC[C@@H]1C(N)=O)NC(=O)[C@H]1CCCC[C@@H]1NC(=O)[C@H]1CCCC[C@@H]1NC(=O)C[C@H](Cc1ccc(O)cc1)NC(=O)[C@H]1CCCC[C@@H]1N [H14 YR] | 11 | 377 | 117 | 67 | 421 | – | 309 | 117 | – | – | – | –
